{
  "source": "paper PMC8315922",
  "about": "“In Vitro Identification and In Vivo Confirmation of Inhibitors for Sweet Potato Chlorotic Stunt Virus RNA Silencing Suppressor, a Viral RNase III” (Journal of Virology, 2021)",
  "key": {"[1]": {"biological_target": "CSR3 (RNase III of SPCSV) (Sweet potato chlorotic stunt virus, UniProt Q8JJW8)", "test": "Kinetic-based HTS (FRET, labeled 22-bp siRNA cleavage), one concentration", "type": "biochemical", "settings": "compound 10 μM, 375 nM siRNA, 37°C", "excerpt": "Based on the catalytic activity of CSR3 on 22-bp siRNA, our kinetic-based HTS assay was designed using distance-dependent FRET technology. Specifically, one strand of siRNA, as a substrate, was labeled with a fluorescent dye (6-carboxyfluorescein [FAM]) at the 5′ end and a quencher (black hole quencher 1 [BHQ1]) at the 3′ end. The initial reaction rate of CSR3 was quantified using the slope of raw fluorescence under an excitation/emission spectrum at 485/520 nm (Fig. 3A). […] In this study, a total of 6,622 compounds (including 6,400 selected from Glide docking and 222 empirically selected compounds for preliminary assay setup) were screened using kinetic-based HTS at a final concentration of 10 μM. All 384-well screening plates contained 32 negative (with CSR3 [i.e., the substrate was successfully cleaved]) and 32 positive (without CSR3 [i.e., the substrate remained intact]) control reaction mixtures. To evaluate the quality of the HTS assay, the Z-factor (Z′) parameter was calculated using the reaction rates of the positive and negative controls ([30]). […]\nThe HTS assay was designed based on FRET using a 22-bp siRNA (forward sequence, […]; reverse sequence, […]) with a 2-nucleotide (nt) 3′ overhang labeled with the fluorescent dye 6-carboxyfluorescein (FAM) and a black hole quencher (BHQ1) on the sense strand (Metabion, Munich, Germany). […] The plates were read with a PHERAstar FS reader (BMG Labtech, Ortenberg, Germany).\n(§1) For HTS, the activity of CSR3 was calculated by measuring the change in fluorescence as a function of the reaction time using MARS Data Analysis software (BMG Labtech). To evaluate the CSR3 inhibition efficiency of individual compounds, the PI of each compound was calculated using the slope values for the sample, positive control, and negative control according to the following equation: PI = 100 × [1 − (sample − positive)/(negative − positive)]%. IC50 and DSS values were calculated using concentration-specific PI values according to a previous study ([31]). Relative gene expression was calculated using the classical 2^−ΔΔ^CT method ([63])."}, "CSR3": {"biological_target": "T1, CSR3 (Sweet potato chlorotic stunt virus, UniProt Q8JJW8)", "T1 sequence (Q8JJW8 1-228)": "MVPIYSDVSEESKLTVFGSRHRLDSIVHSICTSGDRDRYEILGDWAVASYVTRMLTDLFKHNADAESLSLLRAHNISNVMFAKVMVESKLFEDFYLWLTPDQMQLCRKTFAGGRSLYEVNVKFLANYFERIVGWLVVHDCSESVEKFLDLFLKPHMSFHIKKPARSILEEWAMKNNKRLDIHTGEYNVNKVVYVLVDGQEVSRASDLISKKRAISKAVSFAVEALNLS", "test": "Binding affinity assay using SPR", "settings": "for Kd: unit inferred, read-out: Steady State Affinity", "description": "Binding affinity assays were first carried out with the 99 commercial compounds using the MST method.\nCSR3 was purified as described above and stored in PBS buffer. SPR was performed on a BiacoreT100 instrument (GE Healthcare) using a sensor S CM5 chip (GE Healthcare). CSR3 (10 ng/μl) was immobilized using the standard amine-coupling method according to the manufacturer’s instructions with immobilization buffer (10 mM sodium acetate [pH 4]); the final response unit (RU) value was 11,459. Compounds at a single concentration (100 μM) or consisting of 2-fold serial dilutions (3 μM to 200 μM) were flowed over the sensor surface using PBS buffer with 0.01 M HEPES, 0.05% surfactant P20, and 2% DMSO. […] To eliminate bulk interference by DMSO, a solvent correction consisting of DMSO at concentrations ranging from 1.5% to 2.8% was carried out for every 30 samples. Steady-state affinity (KD) values were determined using BiacoreT100 Evaluation software, v.2.04 (GE Healthcare)."}, "SPCSV": {"test_system": "SPCSV", "settings": "plants in soil, 10 μM foliar spray twice a week for 1 month, vs water-treated", "description": "(§2) Compounds were administered by regular foliar spray over 1 month.\n(§3) Sweetpotato plants cultivar 'Huachano' (accession CIP420065) were side-graft inoculated with both SPFMV (East African strain isolate Nam1) and SPCSV-Ug (East African serotype 2) as described previously ([62]). Plantlets were propagated by taking single-node stems grown in a plant culture medium ([33]). Next, plantlets with newly formed roots were transferred to glass tubes (18 by 150 mm) containing 10 ml of medium supplemented with either 50 μM compound (diluted in DMSO; final DMSO concentration, 0.1%) or only 0.1% DMSO as a control. For plant experiments in soil, plantlets were transferred to pots (6 by 6 by 10 cm) filled with a mixture of sand, humus, and washed soil. After 1 week, plants were treated by foliar spraying using either individual compounds at a single concentration (10 μM) (treatment) or water (control/mock) twice a week for 1 month. All plants were grown at 22°C with 60% humidity and a 16-h light/8-h dark photoperiod for 28 days in culture medium and for 41 days in soil. The Finnish National Plant Phenotyping Infrastructure (NaPPI) was used to monitor plant viral disease symptoms as described in our previous study ([33]). Four compounds were tested with the phenotyping platform in two independent batches, each of which included five biological replicates.\n(§4) Leaf samples were collected from plants grown in culture medium or soil for 28 or 41 days, respectively, and frozen in liquid nitrogen. Total RNA was extracted using the Spectrum plant total RNA kit (Sigma-Aldrich). First-strand cDNA was synthesized using the Transcriptor first-strand cDNA synthesis kit (Roche, Basel, Switzerland). Gene expression was measured in a final volume of 10 μl (containing 2 μl 10-fold-diluted cDNA, 5 μl SYBR green I master mix [Roche], and 2.5 μM primers) using the LightCycler 480 instrument II (Roche). All RT-qPCR experiments were conducted in triplicate on three and five biological replicates from plants grown in culture medium and soil, respectively. The primer list can be found in our previous study ([33]).\nas §1"}, "SPFMV": {"test_system": "SPFMV", "settings": "plants in soil, 10 μM foliar spray twice a week for 1 month, vs water-treated", "description": "as §2, §3, §4, §1"}, "[2]": {"test_system": "human enzymes or bacterial proteins", "parameters": "method as in earlier work", "settings": "ref PubChem https://pubchem.ncbi.nlm.nih.gov/compound/7114450#section=Biological-Test-Results; cited from earlier work"}, "[3]": {"settings": "SPR dose-response 3 μM to 200 μM, 25°C, numbers match M (cf. Fig 5A)"}},
  "data": [
    {"compound": "O=C1c2c(O)ccc(O)c2C(=O)c2c(NCCNCCO)ccc(NCCNCCO)c21", "note": "[FIMM000490]", "values": [
      {"measurement": "PI values (percentage of inhibition)", "setting": "[1]", "value": 102.062, "unit": "%"},
      {"measurement": "Kd", "setting": "CSR3; [3]", "value": 137, "unit": "nM"}
    ]},
    {"compound": "O=C(O)c1ccc(C2Nc3c(Br)cccc3C3C=CCC32)cc1", "note": "(stereo not drawn) [FIMM022230]", "values": [
      {"measurement": "log2 fold change in coat protein expression of SPCSV", "setting": "SPCSV", "value": "−0.58"},
      {"measurement": "log2 fold change in coat protein expression of SPFMV", "setting": "SPFMV", "value": "−0.73"},
      {"measurement": "KD (SPR)", "setting": "CSR3; steady-state affinity, Fig 5A", "value": "millimolar range"},
      {"measurement": "activity in inhibitor screens for human enzymes or bacterial proteins", "setting": "[2]", "value": "inactive"}
    ]},
    {"compound": "Cc1ccc(C2Nc3ccc(C(=O)O)cc3C3C=CCC32)cc1", "note": "(stereo not drawn) [FIMM031755]", "values": [
      {"measurement": "log2 fold change in coat protein expression of SPCSV", "setting": "SPCSV", "value": "−1.30"},
      {"measurement": "log2 fold change in coat protein expression of SPFMV", "setting": "SPFMV", "value": "−1.33"},
      {"measurement": "Kd", "setting": "CSR3; [3]", "value": 3760, "unit": "nM"},
      {"measurement": "activity in inhibitor screens for human enzymes or bacterial proteins", "setting": "[2]", "value": "affected the activity of chain B of the human cytokine/receptor binary complex"}
    ]},
    {"compound": "COc1cc(C=C2C(=O)NC(=S)NC2=O)ccc1OCc1ccccc1[N+](=O)[O-]", "note": "[FIMM101864]", "values": [
      {"measurement": "PI values (percentage of inhibition)", "setting": "[1]", "value": 98.4382, "unit": "%"},
      {"measurement": "Steady State Affinity", "setting": "CSR3; SPR dose-response 3 μM to 200 μM, 25°C, unit not given, numbers match M (cf. Fig 5A)", "value": "non binder"}
    ]}
  ]
}
